# In PMC11820896, “New Compounds with Enhanced Biological Activity Through the Strategic Introduction of Silylated Groups into Hydroxystearic Acids” (Molecules, 2025):
# Like-named read-outs stand apart in the source and are kept apart here.
# Key:
# HT29 cells [1] = test: Cell cycle analysis by flow cytometry (PI); type: cell-based, human; conditions: 50 nM, 24 h
# Description: HT29 cells were treated with compound 4 for 24 h and then detached with 0.11% trypsin/0.02% ethylenediaminetetraacetic acid (EDTA) (Sigma-Aldrich, St. Louis, MO, USA), washed in PBS, and centrifuged. Cells were stained and analyzed according to […] al..
# SCD1 = SCD1 protein, Western blot; type: cell-based, human; conditions: 50 nM, 48 h, HT29
# Description: HT29 cells were seeded at a density of 5.0 × 10^4 cells/cm^2 in a Petri dish and treated with 50 nM of compound 4 for 48 h. Cells were then washed with PBS and incubated with the lysis buffer radio immunoprecipitation assay (RIPA) at 4 °C for 15 min with agitation. The proteins were quantified using the Bio-Rad protein assay (Bio-Rad, Hercules, CA, USA) and analyzed by SDS-PAGE and Western blot.
# For the analysis of protein phosphorylation, protein samples (30 μg) were separated on 12% SDS-PAGE in Tris-glycine buffer by electrophoresis at 200 V for 1 h. […] Densitometric analysis was performed with ImageLab 6.1 software (Bio-Rad, Hercules, CA, USA), and bands were normalized to the respective total protein content. For SCD1 analysis, protein samples were resolved on a 10% gel in MOPS buffer at 200 V for 45 min. After electrophoresis and Western blot, the nitrocellulose membrane was incubated overnight at 4 °C with primary antibody anti-SCD1 (Biorbyt, Durham, NC, USA) diluted in PBS-TWEEN 20 0.1%. The membrane was incubated for 1 h with a secondary horseradish peroxidase-conjugated antibody (GE Healthcare, Chicago, IL, USA) and then detected as described above. Quantification was completed by a Fluor-S Max MultiImager (Bio-Rad, Hercules, CA, USA) using a β-tubulin signal as a control.
# MCF7 = test: MTT assay, MCF7 cells; type: cell-based; conditions: Homo sapiens, means of four experiments, na = not active, read-out: In vitro cytotoxic activity (IC50), MCF7
# Description: (§1) The human colorectal adenocarcinoma (Caco-2), human colorectal adenocarcinoma (HT29), normal human intestinal (I407), human cervical cancer (HeLa), human breast cancer (MCF7), human bone osteosarcoma (U2OS), and human acute T-cell leukemia (Jurkat J6) cell lines were purchased from American Type Culture Collection (ATCC, Manassas, VA, USA). Cells were cultured in RPMI 1640 medium (Labtek Eurobio, Milan, Italy), supplemented with 10% FCS (Euroclone, Milano, Italy) and 2 mM L-glutamine (Sigma-Aldrich, Milano, Italy), at 37 °C and in a 5% CO2 atmosphere. The compounds were dissolved in DMSO in a 30–40 mM stock solution. In cell treatments, the final DMSO concentration never exceeded 0.1%.
# (§2) Cells were seeded in a 96-well culture plastic plate (Sarsted, Milan, Italy), at 5 × 10^4 cells/well and, after 24 h, were exposed to increasing concentrations of the different compounds (from 1 nM to 500 nM) dissolved in RPMI 1640 medium. An MTT assay was performed according to Micheletti et al..
# (§3) The absorbance at 570 nm was measured using a multi-well plate reader (Tecan, Männedorf, Switzerland), and data were analyzed by Prism GraphPad 8 software and expressed as IC50 nM.
# J6 = test: MTT assay, Jurkat J6 cells; type: cell-based; conditions: Homo sapiens, means of four experiments, na = not active, read-out: In vitro cytotoxic activity (IC50), J6
# Description: as §1, §2, §3
# HT29 = test: MTT assay, HT29 cells; type: cell-based, human; conditions: for IC50: Homo sapiens, HT-29, means of four experiments
# Description: as §1, §2, §3
# HT29 cells [2] = test: Cellular content of total magnesium (DCHQ5 assay); type: cell-based, human; conditions: 24 h treatment
# Description: To evaluate the total magnesium, the fluorimetric DCHQ5 assay was performed according to Nature Protocol. Briefly, the cells were washed in PBS without Mg and Ca three times, accurately counted, and sonicated at 100 W. A standard curve was prepared with a concentration of MgCl2 between 0.5 and 5 µM in buffer MOPS 2 mM in 50% MetOH. The fluorescent probe DCHQ5 15 µM was added, and the fluorescence was recorded on a PTI Quanta Master C60/2000 spectrofluorometer (Photon Technology International, Inc., Birmingham, NJ, USA). A total of 200 µL of the samples was diluted in the MOPS MetOH buffer, DCHQ5 15 µM was added, and the fluorescence was recorded. The amount of Mg was evaluated by interpolating the fluorescence of the sample with respect to the standard curve expressed as nmoles of magnesium/10^6 cells.
# FASN = FASN mRNA expression, qRT-PCR; type: cell-based, human; conditions: after 6 h of treatment, HT29
# Description: Total RNA from control- and 4-treated HT29 cells was isolated using the RNeasy Mini Kit (Qiagen, Hilden, Germany) according to the manufacturer's protocol. RNA was quantified using the NanoDrop spectrophotometer (Thermo Fisher Scientific, Waltham, MA, USA). RNA (1 μg) was transcribed into cDNA using the PrimeScript RT Master Mix (Perfect Real Time) (Takara Bio, Kusatsu, Japan) according to the manufacturer's instructions. Real-time PCR was performed using the Sybr Premix Ex Taq Takara kit (Takara Bio, Kusatsu, Japan) and the LightCycler 2.0 instrument (Roche Diagnostic, Basel, Switzerland). The following primers (Sigma-Aldrich, Milan, Italy) were used: [NT] (forward) and [NT] (reverse) for FASN detection, [NT] (forward) and [NT] (reverse) for SCD1 detection, and [NT] (forward) and [NT] (reverse) for the detection of β-actin. The first gene analyzed was the housekeeping gene β-actin, and its CT values were used as standards in the ΔΔCT method of result analysis. cDNA samples from HT29-treated cells were compared with untreated control cells.
# HeLa = test: MTT assay, HeLa cells; type: cell-based; conditions: Homo sapiens, means of four experiments, na = not active, read-out: In vitro cytotoxic activity (IC50), HeLa
# Description: as §1, §2, §3
# [3] = test system: human tumor cell lines (HT29, MCF-7, HeLa, U2OS, and J6); test: Antiproliferative activity in the series of human tumor cell lines; type: cell-based; conditions: MTT; concentration range of 10–500 nM
# Description: as §1, §2, §3
# MTT assay, Caco-2 cells = type: cell-based, human; conditions: human, versus normal I407 cells, read-out: S.I. (Selective Index), Caco-2
# Description: as §1, §2, §3
smiles,measurement,setting,value
"CCCCCCCCC[C@H](CCCCCCCC(=O)O)O[Si](C)(C)C(C)(C)C [Compound 4, (R)-9-((tert-butyldimethylsilyl)oxy)octadecanoic acid]",decrease in G2/M phase,HT29 cells [1],80.3 ± 6.1%
same,decrease in S phase,HT29 cells [1],66.4 ± 8.9%
same,increase in the G0/G1 phase,HT29 cells [1],41.8 ± 0.2%
same,SCD1 protein amount,SCD1,decrease in the amount of its protein product
same,IC50,MCF7,211.6 ± 0.23 nM
same,IC50,J6,214.1 ± 0.26 nM
same,IC50,"HT29; MTT after 24 h of treatment, read-out: IC50 nM, HT29 (Table 2)",20.9 ± 0.21 nM
same,IC50,"HT29; MTT, na = not active, read-out: In vitro cytotoxic activity (IC50), HT29",20.3 ± 0.24 nM
same,"S.I. (Selective Index), HT29",HT29; versus normal I407 cells,2.96
same,reduction in the Mg content,HT29 cells [2],−40%
same,FASN gene expression,FASN,marked down-regulation
same,IC50,HeLa,166.1 ± 0.33 nM
same,antitumor activity across all cell lines tested,[3],showed antitumor activity
same,selectivity ratio,"MTT assay, Caco-2 cells",2.65
